Assay results reported in patent US20160303245A1, “FATTY ACID DERIVATIVES OF DIMERIC INHIBITORS OF PSD-95” (UNIVERSITY OF COPENHAGEN, priority 2013, published 2016).
Values joined by “and” are separate entries in the source; they are usually repeats but may differ in a detail not shown here. Equal values may be shown once. Read-outs that look alike come from different tables or passages of the source.

Tests used:
HSA = target: T1, HSA (Homo sapiens, UniProt P02768); test: Transil XL HSA binding assay (immobilized HSA, unbound compound quantified by RP-HPLC)
T1 construct: purchased Sovicell GMBH, Leipzig, Germany
Protocol: The synthesized FA-linked dimeric ligands (1-12) were evaluated for their HSA affinity using a Transil^XL HSA binding assay kit (Sovicell GMBH, Leipzig, Germany). […] The assay kit consisted of prefilled wells with increasing concentrations of immobilized HSA as well as two control wells without HSA. The HSA had been immobilized in a random fashion to ensure that all binding sites on HSA were available. To conduct the assay, the wells were incubated with a known concentration of the tested compounds, and the unbound amount of compound was quantified using analytical RP-HPLC (C8 column). The fraction of unbound drug (fu) for each data point was calculated from the RP-HPLC data by comparison to a control sample without HSA. […] In eq. 1, it is assumed that the concentration of drug-bound HSA ([HSA-D]) is much lower than the total concentration of HSA in the well ([HSA-D]<<cHSA). The assay kit has been designed such that the assumption is valid for compounds where fu>1%. The calculated KD-values were used to calculate fb at physiological concentration of HSA (588 μM) using equation 2.

[1] = In vitro plasma stability assay (modified, GnHCl before TCA precipitation); type: in vitro ADME; settings: human plasma; for half-life: 1st order decay fit
Protocol: The plasma-stability of 1, 4, 7 and 13 was evaluated in a modified version of an in vitro plasma stability assay (Bach et al, Angew. Chem, Int. Ed, 2009, 48, 9685-9689). In the original procedure, the investigated compound was incubated in human plasma. Samples were then taken out at appropriate timepoints and the serum proteins were removed by precipitation with trichloroacetic acid (TCA) followed by analysis of the supernatants by RP-HPLC. The obtained peak areas were normalized to the amount at T0 and fitted to a 1st order decay model to calculate the half-life. When this method was applied to the FA-linked dimeric ligands, sample recoveries were low (<5%). This was caused by the removal of the FA-linked dimeric ligands as HSA-bound complexes during the TCA precipitation. Therefore dissolution of the sample in solid guanidine hydrochloride (GnHCI) to a final concentration of 6M was performed prior to the TCA precipitation. The purpose of this was to unfold the HSA in the sample, releasing the FA-linked dimeric ligand.

[2] = In vivo pharmacokinetics, blood concentration by LC-MS/MS after single s.c. bolus injection; design: species or system male Wistar rats; settings: sc, rat
Text: To determine the pharmacokinetic properties of FA-linked compounds we measured the concentration of selected compounds in blood by LC-MS/MS following a single subcutaneous (s.c.) bolus injection in male Wistar rats (FIG. 5). From this, it was apparent that all FA-linked dimeric ligands have longer T1/2 and greater Tmax than dimeric ligand without FA (UCCB01-125) (Table 4 and FIG. 5). […] The increased Tmax is explained by a prolonged absorption from the injection site. Overall, these properties enable administration by s.c.depot injections and thereby slow and consistent release of compound into the blood, whereby fewer administrations are needed to maintain pharmaceutical relevant blood concentrations.

PSD-95 PDZ1-2 = PSD-95 PDZ1-2 (Homo sapiens, UniProt P78352); test: In vitro fluorescence polarization (FP) competition binding assay, in TBS and modified with 1% HSA
Protocol: Affinity to PSD-95 was measured using an in vitro fluorescence polarization (FP) assay as described by Bach et al (PNAS USA, 2012, 109, 3317-3322). First, a saturation binding curve was obtained to determine KD values for the interaction between a dimeric fluorescent probe and PSD-95 PDZ1-2. Increasing concentrations of PDZ1-2 were added to a constant concentration (0.5 nM) of the probe. The fluorescence polarization of the samples was measured at excitation/emission wavelengths of 635/670 nm and the FP values were fitted to a one site binding model using the program GraphPad Prism. […] The FP values were fitted to a one site competition (variable slope) model in GraphPad Prism. The resulting IC50 were converted to competition inhibition constants, Ki values, as described (Nikolovska-Coleska et al, Anal Biochem, 2004, 332, 261-273). The modified FP assay was conducted as described above with 1% HSA in the assay. The synthesized FA-linked dimeric ligands were evaluated for their affinity to PSD-95 PDZ1-2 in the FP assay. […] We first measured the affinities using a simple tris-buffered saline (TBS) buffer (Table 2, FIG. 3A); but furthermore, we investigated if HSA influenced the ability of the FA-linked dimers to bind PSD95 PDZ1-2 by conducting the FP assay with HSA present in the assay buffer (Table 2, FIG. 3B). […] For a traditional small-molecule drug, it is commonly accepted that the unbound fraction of the drug is free to diffuse across membranes and exerts the physiological effect by interacting with its target (Berezhkovskiy et al, J Pharm Sci 2007, 96, 249-257). I.e. if the drug is bound to another molecule, then it cannot interact with the target at the same time.

[3] = dose 15 mg/kg, mean ± SEM, n = 3
[4] = FP data (TBS+HSA) corrected for calculated fu, read-out: Ki(PSD95), free ligand
[5] = FP in TBS with 1% HSA (~150 μM), mean ± SEM, n ≧ 3, read-out: Ki(PSD95) + HSA
[6] = FP in TBS, mean ± SEM, n ≧ 3, read-out: Ki(PSD95)
[7] = dose 10 mg/kg, mean ± SEM, n = 3
[8] = dose 3 mg/kg, mean ± SEM, n = 3
[9] = dose 30 mg/kg, mean ± SEM, n = 3

T1 sequence (P02768 25-609): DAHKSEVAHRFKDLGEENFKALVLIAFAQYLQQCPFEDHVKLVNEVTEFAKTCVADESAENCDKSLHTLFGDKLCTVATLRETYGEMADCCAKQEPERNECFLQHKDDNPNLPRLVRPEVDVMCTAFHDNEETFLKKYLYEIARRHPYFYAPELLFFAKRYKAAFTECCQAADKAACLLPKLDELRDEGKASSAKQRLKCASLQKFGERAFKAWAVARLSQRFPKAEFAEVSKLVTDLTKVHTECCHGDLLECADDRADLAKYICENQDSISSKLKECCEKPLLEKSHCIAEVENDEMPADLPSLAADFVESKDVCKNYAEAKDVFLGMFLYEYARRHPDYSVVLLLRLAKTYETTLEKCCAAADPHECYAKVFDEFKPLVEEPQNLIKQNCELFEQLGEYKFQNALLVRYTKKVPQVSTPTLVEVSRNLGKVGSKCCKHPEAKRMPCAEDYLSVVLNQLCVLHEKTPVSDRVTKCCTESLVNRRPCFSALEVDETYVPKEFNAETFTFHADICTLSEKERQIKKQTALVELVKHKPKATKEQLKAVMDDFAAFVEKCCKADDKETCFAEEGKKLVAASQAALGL
Chain of PSD-95 PDZ1-2 (P78352 61-249 limits assumed): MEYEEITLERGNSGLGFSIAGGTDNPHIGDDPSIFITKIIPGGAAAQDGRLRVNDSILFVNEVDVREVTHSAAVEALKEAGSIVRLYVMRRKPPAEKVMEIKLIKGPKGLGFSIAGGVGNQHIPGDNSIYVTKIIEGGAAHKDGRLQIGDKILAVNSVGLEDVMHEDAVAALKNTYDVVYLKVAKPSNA

| Compound | fraction unbound (HSA) | In vitro plasma stability [1] | half-life [1] | Kd (HSA) | Ki (PSD-95 PDZ1-2; [4]) | Ki (PSD-95 PDZ1-2; [5]) | Ki (PSD-95 PDZ1-2; [6]) | half-life ([2]; single s.c. bolus injection) | also measured |
| --- | --- | --- | --- | --- | --- | --- | --- | --- | --- |
| CCCCCCCCCCCC(=O)NCCCC(=O)N(CCOCCOCCC(=O)N[C@H](C(=O)N[C@@H](CCC(=O)O)C(=O)N[C@H](C(=O)N[C@@H](C)C(=O)N[C@H](C(=O)O)C(C)C)[C@@H](C)O)[C@@H](C)CC)CCOCCOCCC(=O)N[C@H](C(=O)N[C@@H](CCC(=O)O)C(=O)N[C@H](C(=O)N[C@@H](C)C(=O)N[C@H](C(=O)O)C(C)C)[C@@H](C)O)[C@@H](C)CC [Compound 1] | 0.151 | degraded faster | 23.6 h | – | – | – | – | – | Tmax [2, 3]: 0.833 ± 0.167 h; half-life [2, 3]: 0.768 ± 0.045 h |
| CCCCCCCCCCCCCCCCCC(=O)NCCCC(=O)N(CCOCCOCCC(=O)N[C@H](C(=O)N[C@@H](CCC(=O)O)C(=O)N[C@H](C(=O)N[C@@H](C)C(=O)N[C@H](C(=O)O)C(C)C)[C@@H](C)O)[C@@H](C)CC)CCOCCOCCC(=O)N[C@H](C(=O)N[C@@H](CCC(=O)O)C(=O)N[C@H](C(=O)N[C@@H](C)C(=O)N[C@H](C(=O)O)C(C)C)[C@@H](C)O)[C@@H](C)CC [Compound 3] | 0.031 | – | – | 4.8 µM | 0.0572 µM | 1.89 ± 0.155 µM | 0.0111 µM | – | – |
| CC[C@H](C)[C@H](NC(=O)CCOCCOCCN(CCOCCOCCC(=O)N[C@H](C(=O)N[C@@H](CCC(=O)O)C(=O)N[C@H](C(=O)N[C@@H](C)C(=O)N[C@H](C(=O)O)C(C)C)[C@@H](C)O)[C@@H](C)CC)C(=O)CCCNC(=O)CCCCCCCCCCCCCCCCC(=O)O)C(=O)N[C@@H](CCC(=O)O)C(=O)N[C@H](C(=O)N[C@@H](C)C(=O)N[C@H](C(=O)O)C(C)C)[C@@H](C)O [Compound 4] | 0.115 | highly stable | > 24 h | 19.4 ± 3.6 µM | 0.654 ± 0.034 µM | 5.72 ± 0.298 µM | 0.0114 ± 0.0006 µM | > 8 h | Tmax [2, 3]: 4.67 ± 0.66 h; half-life [2, 3]: 8.13 ± 0.5 h |
| CCCCCCCCCCCCCCCCCC(=O)N[C@@H](CCC(=O)N(CCOCCOCCC(=O)N[C@H](C(=O)N[C@@H](CCC(=O)O)C(=O)N[C@H](C(=O)N[C@@H](C)C(=O)N[C@H](C(=O)O)C(C)C)[C@@H](C)O)[C@@H](C)CC)CCOCCOCCC(=O)N[C@H](C(=O)N[C@@H](CCC(=O)O)C(=O)N[C@H](C(=O)N[C@@H](C)C(=O)N[C@H](C(=O)O)C(C)C)[C@@H](C)O)[C@@H](C)CC)C(=O)O [Compound 7] | 0.043 | highly stable | > 24 h | 6.8 ± 1.2 µM | 0.0591 µM | 1.39 ± 0.184 µM | 0.017 µM | > 8 h | Tmax [2, 7]: 6 ± 1.15 h; half-life [2, 7]: 10.7 ± 0.58 h |
| CCCCCCCCCCCCCCCCCC(=O)NCCCCC(=O)N(CCOCCOCCC(=O)N[C@H](C(=O)N[C@@H](CCC(=O)O)C(=O)N[C@H](C(=O)N[C@@H](C)C(=O)N[C@H](C(=O)O)C(C)C)[C@@H](C)O)[C@@H](C)CC)CCOCCOCCC(=O)N[C@H](C(=O)N[C@@H](CCC(=O)O)C(=O)N[C@H](C(=O)N[C@@H](C)C(=O)N[C@H](C(=O)O)C(C)C)[C@@H](C)O)[C@@H](C)CC [Compound 11] | 0.078 | – | – | – | – | 1.89 ± 0.1 µM | – | – | – |
| CCCCCCCCCCCCCCCCCC(=O)NCCCC(=O)N(CCOCCOCCC(=O)N[C@H](C(=O)N[C@@H](CCC(=O)O)C(=O)N[C@H](C(=O)N[C@@H](CC(=O)O)C(=O)N[C@H](C(=O)O)C(C)C)[C@@H](C)O)[C@@H](C)CC)CCOCCOCCC(=O)N[C@H](C(=O)N[C@@H](CCC(=O)O)C(=O)N[C@H](C(=O)N[C@@H](CC(=O)O)C(=O)N[C@H](C(=O)O)C(C)C)[C@@H](C)O)[C@@H](C)CC [Compound 13] | 0.356 | highly stable | > 24 h | 83 µM | – | – | – | > 8 h | Tmax [2, 7]: 8 h; half-life [2, 7]: 16.3 ± 2.81 h |
| CCCCCCCCCCCCCCCCCC(=O)N[C@@H](CCC(=O)N(CCOCCOCCC(=O)N[C@H](C(=O)N[C@@H](CCC(=O)O)C(=O)N[C@H](C(=O)N[C@@H](CC(=O)O)C(=O)N[C@H](C(=O)O)C(C)C)[C@@H](C)O)[C@@H](C)CC)CCOCCOCCC(=O)N[C@H](C(=O)N[C@@H](CCC(=O)O)C(=O)N[C@H](C(=O)N[C@@H](CC(=O)O)C(=O)N[C@H](C(=O)O)C(C)C)[C@@H](C)O)[C@@H](C)CC)C(=O)O [Compound 15] | 0.268 | – | – | 55 ± 3.4 µM | – | – | – | – | – |
| CC[C@H](C)[C@H](NC(=O)CCOCCOCCOCCOCCOCCC(=O)N[C@H](C(=O)N[C@@H](CCC(=O)O)C(=O)N[C@H](C(=O)N[C@@H](C)C(=O)N[C@H](C(=O)O)C(C)C)[C@@H](C)O)[C@@H](C)CC)C(=O)N[C@@H](CCC(=O)O)C(=O)N[C@H](C(=O)N[C@@H](C)C(=O)N[C@H](C(=O)O)C(C)C)[C@@H](C)O [UCCB01-125, reference compound] | 0.507 | – | 1.7 h | 154 µM | – | – | – | – | Tmax [2, 8]: 0.5 h; half-life [2, 8]: 0.561 ± 0.101 h; Tmax [2, 9]: 0.5 h; half-life [2, 9]: 0.45 ± 0.068 h |
| CC[C@H](C)[C@H](NC(=O)CCOCCOCCN(CCOCCOCCC(=O)N[C@H](C(=O)N[C@@H](CCC(=O)O)C(=O)N[C@H](C(=O)N[C@@H](CC(=O)O)C(=O)N[C@H](C(=O)O)C(C)C)[C@@H](C)O)[C@@H](C)CC)C(=O)[C@H](CCCNC(=N)N)NC(=O)[C@H](CCCNC(=N)N)NC(=O)[C@H](CCCNC(=N)N)NC(=O)[C@H](CCC(N)=O)NC(=O)[C@H](CCCNC(=N)N)NC(=O)[C@H](CCCNC(=N)N)NC(=O)[C@H](CCCCN)NC(=O)[C@H](CCCCN)NC(=O)[C@H](CCCNC(=N)N)NC(=O)CNC(=O)[C@@H](N)Cc1ccc(O)cc1)C(=O)N[C@@H](CCC(=O)O)C(=O)N[C@H](C(=O)N[C@@H](CC(=O)O)C(=O)N[C@H](C(=O)O)C(C)C)[C@@H](C)O [UCCB01-144, reference compound] | – | – | – | – | – | – | – | – | fb (%), HSA bound fraction (HSA; calculated from KD at physiological concentration of HSA (588 μM), equation 2): 65% and 65.3 ± 2.9%; fraction unbound (HSA; calculated from equation 2 at HSA concentration of 150 μM, read-out: fu (%), calculated fraction of unbound drug): 0.679; Kd (HSA; mean ± SEM, n = 3, read-out: KD(HSA)): 318 µM |
